# Measured values: US5587475A, “Derivatized virginiamycin M1” (University of Notre Dame, priority 1995, dated 1996)
# Tests used:
# [1] = system: ribosomes; test: in vitro activity: binding to free ribosomes, VS1 fluorescence with erythromycin displacement; parameters: key to kobs (symbol): (*) too small to be measured. t/2 is very large; conditions: together with VS1, fluorescence
# Experimental: The in vivo tests were carried out using Micrococcus luteus as the test organism with the VM1 derivatives alone (without VS1). Minimum inhibitory concentrations (MIC values) were determined on agar broth plates by standard microbiological procedures, with a range of concentrations of the VM derivatives applied to the plates. The in vitro tests of the VM derivatives were performed together with VS1, and took advantage of the unique fluorescence (F) inherent in VS1. […] Using spectrofluorometry, an increase in fluorescence can be measured when ribosomes are added to a VS1 solution. Erythromycin is known to bind at the same position on the ribosome (50-S subunit) as VS1, and when it is added to the VS1 /ribosomal mixture, a decrease in fluorescence is seen. If VM1 is added to the VS1 /ribosomal/erythromycin mixture, an increase in fluorescence can be measured. Presumably, a conformational change of the ribosomes occurs upon binding of VM1, which allows VS1 to bind preferentially and releases erythromycin from the ribosomes. The VM1 derivatives would also display this type of behavior if they bind to the ribosomes.
# [2] = system: Micrococcus luteus; test: in vivo activity, M.I.C. on M. luteus (VM1 derivatives alone, without VS1); assay type: cell-based; parameters: key: (+) indicates multiplication of bacteria; conditions: M. luteus in LBroth, 18 h at 37° C. with shaking
# Experimental: The synthesized derivatives of the present invention have been tested for antibacterial activity (in solid and liquid medium), ribosome binding affinity and synergistic activity with virginiamycin S. The tests for biological activity were carried out both in vivo and in vitro. The in vivo tests were carried out using Micrococcus luteus as the test organism with the VM1 derivatives alone (without VS1). Minimum inhibitory concentrations (MIC values) were determined on agar broth plates by standard microbiological procedures, with a range of concentrations of the VM derivatives applied to the plates. The in vitro tests of the VM derivatives were performed together with VS1, and took advantage of the unique fluorescence (F) inherent in VS1. The results are summarized in the following tables, wherein the activities are compared to virginiamycin (VM1). | M. luteus in LBroth, 18 h at 37° C. with shaking. | M. luteus in LBroth, 18 h at 37° C. with shaking.
# [3] = in vitro Activity of VM1-Carboxylic Acid Derivatives
# [4] = in vitro Activity of VM1-Ester Derivatives
SMILES,"kobs [1, 3]","t/2 [1, 3] [s]","in vivo Acitivity of VM1-Carboxylic Derivatives, M.I.C. on M. luteus (multiplication of bacteria) ([2]; Concentration 0.0625 μg/mL)","in vivo Acitivity of VM1-Carboxylic Derivatives, M.I.C. on M. luteus (multiplication of bacteria) ([2]; Concentration 0.125 μg/mL)","in vivo Acitivity of VM1-Carboxylic Derivatives, M.I.C. on M. luteus (multiplication of bacteria) ([2]; Concentration 0.25 μg/mL)","in vivo Acitivity of VM1-Carboxylic Derivatives, M.I.C. on M. luteus (multiplication of bacteria) ([2]; Concentration 0.5 μg/mL)","in vivo Acitivity of VM1-Carboxylic Derivatives, M.I.C. on M. luteus (multiplication of bacteria) ([2]; Concentration 1 μg/mL)","in vivo Acitivity of VM1-Carboxylic Derivatives, M.I.C. on M. luteus (multiplication of bacteria) ([2]; Concentration 2 μg/mL)","in vivo Acitivity of VM1-Carboxylic Derivatives, M.I.C. on M. luteus (multiplication of bacteria) ([2]; Concentration 4 μg/mL)","in vivo Acitivity of VM1-Carboxylic Derivatives, M.I.C. on M. luteus (multiplication of bacteria) ([2]; Concentration 8 μg/mL)","in vivo Acitivity of VM1-Carboxylic Derivatives, M.I.C. on M. luteus (multiplication of bacteria) ([2]; Concentration 16 μg/mL)","in vivo Acitivity of VM1-Carboxylic Derivatives, M.I.C. on M. luteus (multiplication of bacteria) ([2]; Concentration 32 μg/mL)","in vivo Activity of VM1-Ester Derivatives, M.I.C. on M. luteus (multiplication of bacteria) ([2]; Concentration 0.0625 μg/mL)","in vivo Activity of VM1-Ester Derivatives, M.I.C. on M. luteus (multiplication of bacteria) ([2]; Concentration 0.125 μg/mL)","in vivo Activity of VM1-Ester Derivatives, M.I.C. on M. luteus (multiplication of bacteria) ([2]; Concentration 0.25 μg/mL)",other results
"CC1=C\[C@@H](O)CC(=O)Cc2nc(co2)C(=O)N2CC[C@@H](SCC(=O)O)[C@@H]2C(=O)O[C@H](C(C)C)[C@H](C)/C=C/C(=O)NC\C=C\1 [Carboxylic a R,S]",.00047 s⁻¹,1487,+,+,+,+,+,+,+,+,+,,,,,
"CC1=C\[C@@H](O)CC(=O)Cc2nc(co2)C(=O)N2CC[C@H](SCC(=O)O)[C@H]2C(=O)O[C@H](C(C)C)[C@H](C)/C=C/C(=O)NC\C=C\1 [Carboxylic a S,R]",,,+,+,+,+,+,+,+,+,+,+,,,,"kobs (symbol) [1, 3]: *; in vivo Acitivity of VM1-Carboxylic Derivatives, M.I.C. on M. luteus (multiplication of bacteria) ([2]; Concentration 128 μg/mL): +"
"CC1=C\[C@@H](O)CC(=O)Cc2nc(co2)C(=O)N2CC[C@@H](SCCC(=O)O)[C@@H]2C(=O)O[C@H](C(C)C)[C@H](C)/C=C/C(=O)NC\C=C\1 [Carboxylic b R,S]",0.003 s⁻¹,229,+,+,+,+,+,+,+,+,+,+,,,,
"CC1=C\[C@@H](O)CC(=O)Cc2nc(co2)C(=O)N2CC[C@H](SCCC(=O)O)[C@H]2C(=O)O[C@H](C(C)C)[C@H](C)/C=C/C(=O)NC\C=C\1 [Carboxylic b S,R]",,,+,+,+,+,+,+,+,+,+,+,,,,"kobs (symbol) [1, 3]: *; in vivo Acitivity of VM1-Carboxylic Derivatives, M.I.C. on M. luteus (multiplication of bacteria) ([2]; Concentration 128 μg/mL): +"
"CC1=C\[C@@H](O)CC(=O)Cc2nc(co2)C(=O)N2CC[C@@H](SCCCCC(=O)O)[C@@H]2C(=O)O[C@H](C(C)C)[C@H](C)/C=C/C(=O)NC\C=C\1 [Carboxylic c R,S]",0.019 s⁻¹,38.7,+,+,+,,,,,,,,,,,
"CC1=C\[C@@H](O)CC(=O)Cc2nc(co2)C(=O)N2CC[C@H](SCCCCC(=O)O)[C@H]2C(=O)O[C@H](C(C)C)[C@H](C)/C=C/C(=O)NC\C=C\1 [Carboxylic c S,R]",0.015 s⁻¹,46,+,+,+,,,,,,,,,,,
"CC1=C\[C@@H](O)CC(=O)Cc2nc(co2)C(=O)N2CC[C@@H](SCC(=O)OCC(Cl)(Cl)Cl)[C@@H]2C(=O)O[C@H](C(C)C)[C@H](C)/C=C/C(=O)NC\C=C\1 [Ester a R,S]",,,,,,,,,,,,,+,+,+,"kobs [1, 4]: 0.019 s⁻¹; t/2 [1, 4]: 35.6 s"
"CC1=C\[C@@H](O)CC(=O)Cc2nc(co2)C(=O)N2CC[C@H](SCC(=O)OCC(Cl)(Cl)Cl)[C@H]2C(=O)O[C@H](C(C)C)[C@H](C)/C=C/C(=O)NC\C=C\1 [Ester a S,R]",,,,,,,,,,,,,+,+,+,"kobs (symbol) [1, 4]: *; in vivo Activity of VM1-Ester Derivatives, M.I.C. on M. luteus (multiplication of bacteria) ([2]; Concentration 0.5 μg/mL): +; in vivo Activity of VM1-Ester Derivatives, M.I.C. on M. luteus (multiplication of bacteria) ([2]; Concentration 1 μg/mL): +; in vivo Activity of VM1-Ester Derivatives, M.I.C. on M. luteus (multiplication of bacteria) ([2]; Concentration 2 μg/mL): +; in vivo Activity of VM1-Ester Derivatives, M.I.C. on M. luteus (multiplication of bacteria) ([2]; Concentration 4 μg/mL): +; in vivo Activity of VM1-Ester Derivatives, M.I.C. on M. luteus (multiplication of bacteria) ([2]; Concentration 8 μg/mL): +; in vivo Activity of VM1-Ester Derivatives, M.I.C. on M. luteus (multiplication of bacteria) ([2]; Concentration 16 μg/mL): +"
"CC1=C\[C@@H](O)CC(=O)Cc2nc(co2)C(=O)N2CC[C@@H](SCCC(=O)OCC(Cl)(Cl)Cl)[C@@H]2C(=O)O[C@H](C(C)C)[C@H](C)/C=C/C(=O)NC\C=C\1 [Ester b R,S]",,,,,,,,,,,,,+,+,+,"kobs [1, 4]: 0.021 s⁻¹; t/2 [1, 4]: 32.7 s; in vivo Activity of VM1-Ester Derivatives, M.I.C. on M. luteus (multiplication of bacteria) ([2]; Concentration 0.5 μg/mL): +"
